From ChEMBL document CHEMBL1154899, “Synthesis and biological evaluation of caffeic acid 3,4-dihydroxyphenethyl ester” (J Nat Prod, 2010)

Assays:
Format in all cases: functional
UACC-62 [1] = test: Antiproliferative activity against human UACC62 cells by SRB assay
DU-145 = test: Antiproliferative activity against human DU145 cells assessed as cell growth at 50 uM by SRB assay; settings: read-out: Activity
SNB-75 [2] = test: Antiproliferative activity against human SNB75 cells assessed as cell growth at 500 uM by SRB assay; settings: read-out: Activity
CAKI-1 [3] = test: Antiproliferative activity against human Caki1 cells assessed as cell growth at 50 uM by SRB assay; settings: read-out: Activity
MDA-MB-231 = test: Antiproliferative activity against human MDA-MB-231 cells assessed as cell growth at 5 uM by SRB assay; settings: read-out: Activity
SK-OV-3 = test: Antiproliferative activity against human SKOV3 cells assessed as cell growth at 500 uM by SRB assay; settings: read-out: Activity
SW-620 = test: Antiproliferative activity against human SW620 cells assessed as cell growth at 5 uM by SRB assay; settings: read-out: Activity
NCI-H23 [4] = test: Antiproliferative activity against human NCI-H23 cells assessed as cell growth at 500 uM by SRB assay; settings: read-out: Activity
K562 = test: Antiproliferative activity against human K562 cells assessed as cell growth at 5 uM by SRB assay; settings: read-out: Activity
UACC-257 [5] = test: Antiproliferative activity against human UACC257 cells assessed as cell growth at 5 uM by SRB assay; settings: read-out: Activity
TK-10 = test: Antiproliferative activity against human TK10 cells assessed as cell growth at 5 mM by SRB assay; settings: read-out: Activity
HCC 2998 = test: Antiproliferative activity against human HCC2998 cells assessed as cell growth at 0.5 uM by SRB assay; settings: read-out: Activity
MOLT-4 = test: Antiproliferative activity against human MOLT4 cells assessed as cell growth at 0.5 uM by SRB assay; settings: read-out: Activity
OVCAR-3 = test: Antiproliferative activity against human OVCAR-3 cells assessed as cell growth at 50 uM by SRB assay; settings: read-out: Activity
CAKI-1 [6] = test: Antiproliferative activity against human Caki1 cells by SRB assay
UO-31 = test: Antiproliferative activity against human UO31 cells assessed as cell growth at 0.5 uM by SRB assay; settings: read-out: Activity
SNB-75 [7] = test: Antiproliferative activity against human SNB75 cells assessed as cell growth at 0.5 uM by SRB assay; settings: read-out: Activity
SF-539 = test: Antiproliferative activity against human SF539 cells assessed as cell growth at 5 uM by SRB assay; settings: read-out: Activity
SK-MEL-28 = test: Antiproliferative activity against human SK-MEL-28 cells assessed as cell growth at 5 uM by SRB assay; settings: read-out: Activity
NCI-H322M = test: Antiproliferative activity against human NCI-H322M cells by SRB assay
U-251 = test: Antiproliferative activity against human U251 cells by SRB assay
HCT-116 [8] = test: Antiproliferative activity against human HCT116 cells assessed as cell growth at 500 uM by SRB assay; settings: read-out: Activity
T47D = test: Antiproliferative activity against human T47D cells assessed as cell growth at 50 uM by SRB assay; settings: read-out: Activity
[9] = Antiproliferative activity against human Hs 578T cells assessed as cell growth at […] by SRB assay; settings: read-out: Activity
[10] = Antiproliferative activity against human Hs 578T cells assessed as cell growth at 0.5 uM by SRB assay; settings: read-out: Activity
OVCAR-8 = test: Antiproliferative activity against human OVCAR8 cells assessed as cell growth at 50 uM by SRB assay; settings: read-out: Activity
UACC-62 [11] = test: Antiproliferative activity against human UACC62 cells assessed as cell growth at 5 uM by SRB assay; settings: read-out: Activity
OVCAR-4 = test: Antiproliferative activity against human OVCAR4 cells assessed as cell growth at 0.5 uM by SRB assay; settings: read-out: Activity
NCI-H522 = test: Antiproliferative activity against human NCI-H522 cells assessed as cell growth at 500 uM by SRB assay; settings: read-out: Activity
HCT-116 [12] = test: Antiproliferative activity against human HCT116 cells assessed as cell growth at 50 uM by SRB assay; settings: read-out: Activity
[13] = Antiproliferative activity against human […] cells assessed as cell growth at 5 uM by SRB assay; settings: read-out: Activity
UACC-257 [14] = test: Antiproliferative activity against human UACC257 cells assessed as cell growth at 500 uM by SRB assay; settings: read-out: Activity
KM12 [15] = test: Antiproliferative activity against human KM12 cells by SRB assay
HT-29 = test: Antiproliferative activity against human HT-29 cells assessed as cell growth at […] by SRB assay; settings: read-out: Activity
[16] = Antiproliferative activity against human […] cells assessed as cell growth at 50 uM by SRB assay; settings: read-out: Activity
IGROV-1 = test: Antiproliferative activity against human IGROV1 cells assessed as cell growth at 5 uM by SRB assay; settings: read-out: Activity
KM12 [17] = test: Antiproliferative activity against human KM12 cells assessed as cell growth at 0.5 uM by SRB assay; settings: read-out: Activity
SR = test: Antiproliferative activity against human SR cells assessed as cell growth at 5 uM by SRB assay; settings: read-out: Activity
NCI-H460 = test: Antiproliferative activity against human NCI-H460 cells assessed as cell growth at 500 uM by SRB assay; settings: read-out: Activity
HCT-15 = test: Antiproliferative activity against human HCT15 cells assessed as cell growth at 0.5 uM by SRB assay; settings: read-out: Activity
COLO 205 = test: Antiproliferative activity against human COLO205 cells assessed as cell growth at 500 uM by SRB assay; settings: read-out: Activity
[18] = Antiproliferative activity against human […] cells assessed as cell growth at 0.5 uM by SRB assay; settings: read-out: Activity
Malme-3M = test: Antiproliferative activity against human MALME-3M cells assessed as cell growth at 5 uM by SRB assay; settings: read-out: Activity
NCI-H23 [19] = test: Antiproliferative activity against human NCI-H23 cells assessed as cell growth at 50 uM by SRB assay; settings: read-out: Activity
OVCAR-5 = test: Antiproliferative activity against human OVCAR5 cells at 50 uM by SRB assay
[20] = read-out: LC50 (the source's name)
[21] = read-out: pLC50 (the source's name) (converted)

For `O=C(/C=C/c1ccc(O)c(O)c1)OCCc1ccc(O)c(O)c1`, the GI50 (UACC-62 [1]; read-out: GI50) was 5.33 µM, the CC50 (UACC-62 [1]; [20]) was > 50 µM and the TGI (UACC-62 [1]; read-out: TGI) was 38.3 µM. The GI50 (UACC-62 [1]; read-out: pGI50 (converted)) was 5.37 µM, the CC50 (UACC-62 [1]; [21]) was > 50.1 µM and the TGI (UACC-62 [1]; read-out: pTGI (converted)) was 38 µM. The growth at 50 µM (DU-145) was 100%, the growth at 500 µM (SNB-75 [2]) was 58% and the growth at 50 µM (CAKI-1 [3]) was 88%. It also gave a growth at 5 µM (MDA-MB-231) of 108%, a growth at 500 µM (SK-OV-3) of 79% and a growth at 5 µM (SW-620) of 95%. For the same compound, the growth at 500 µM (NCI-H23 [4]) was 78%, the growth at 5 µM (K562) was 95% and the growth at 5 µM (UACC-257 [5]) was 92%. For the same compound, the growth at 5000 µM (TK-10) was 40%, the growth at 0.5 µM (HCC 2998) was 93% and the growth at 0.5 µM (MOLT-4) was 101%. For the same compound, the growth at 50 µM (OVCAR-3) was 90%, the GI50 (CAKI-1 [6]; read-out: GI50) was 10.6 µM and the CC50 (CAKI-1 [6]; [20]) was > 50 µM. For the same compound, the TGI (CAKI-1 [6]; read-out: TGI) was > 50 µM, the GI50 (CAKI-1 [6]; read-out: pGI50 (converted)) was 10.5 µM and the CC50 (CAKI-1 [6]; [21]) was > 50.1 µM. The TGI (CAKI-1 [6]; read-out: pTGI) was > 50.1 µM, the growth at 0.5 µM (UO-31) was 98% and the growth at 0.5 µM (SNB-75 [7]) was 81%. For the same compound, the growth at 5 µM (SF-539) was 81%, the growth at 5 µM (SK-MEL-28) was 89% and the GI50 (NCI-H322M; read-out: GI50) was 28.1 µM. For the same compound, the CC50 (NCI-H322M; [20]) was > 50 µM, the TGI (NCI-H322M; read-out: TGI) was > 50 µM and the GI50 (NCI-H322M; read-out: pGI50 (converted)) was 28.2 µM. For the same compound, the CC50 (NCI-H322M; [21]) was > 50.1 µM, the TGI (NCI-H322M; read-out: pTGI) was > 50.1 µM and the GI50 (U-251; read-out: GI50) was 8.86 µM. The CC50 (U-251; [20]) was > 50 µM, the TGI (U-251; read-out: TGI) was > 50 µM and the GI50 (U-251; read-out: pGI50 (converted)) was 8.71 µM. For the same compound, the CC50 (U-251; [21]) was > 50.1 µM, the TGI (U-251; read-out: pTGI) was > 50.1 µM and the growth at 500 µM (HCT-116 [8]) was 65%. The growth at 50 µM (T47D) was 93%, the growth [9] was 9% and the growth at 0.5 µM [10] was 83%. The growth at 50 µM (OVCAR-8) was 78%, the growth at 5 µM (UACC-62 [11]) was 94% and the growth at 0.5 µM (OVCAR-4) was 99%. It also gave a growth at 500 µM (NCI-H522) of 10%, a growth at 50 µM (HCT-116 [12]) of 92% and a growth at 5 µM [13] of 70%. The growth at 500 µM (UACC-257 [14]) was 83%, the GI50 (KM12 [15]; read-out: GI50) was 7.92 µM and the CC50 (KM12 [15]; [20]) was > 50 µM. For the same compound, the TGI (KM12 [15]; read-out: TGI) was > 50 µM, the GI50 (KM12 [15]; read-out: pGI50 (converted)) was 7.94 µM and the CC50 (KM12 [15]; [21]) was > 50.1 µM. The TGI (KM12 [15]; read-out: pTGI) was > 50.1 µM, the growth (HT-29) was 34% and the growth at 50 µM [16] was 54%. For the same compound, the growth at 5 µM (IGROV-1) was 102%, the growth at 0.5 µM (KM12 [17]) was 97% and the growth at 5 µM (SR) was 81%. For the same compound, the growth at 500 µM (NCI-H460) was 94%, the growth at 0.5 µM (HCT-15) was 80% and the growth at 500 µM (COLO 205) was 84%. It also gave a growth at 0.5 µM [18] of 86%, a growth at 5 µM (Malme-3M) of 98% and a growth at 50 µM (NCI-H23 [19]) of 89%. For the same compound, the Activity (OVCAR-5) was 97%.
